Measurements published in patent US6132750A (Coletica, priority 1998, dated 2000).

Assay: Inhibition of the Fe2+ induced radical degradation of hyaluronic acid (viscosity drop)
Settings: for Index of protection (%): hyaluronic acid 10 g/l, Fe2+ 620 ppm; for effect on the depolymerisation (radical cleavage) of hyaluronic acid in the presence of iron: in words
Experimental: The chelating microspheres prepared according to I2 are used to evaluate their capacity, via the trapping of ferrous iron Fe2+, to inhibit the radical degradation of hyaluronic acid, glycosarinoglycan implied in the moisturisation of the human dermis, which is therefore a particularly important target to protect in cosmetic and dermo-pharmaceutical applications.
A 10 g/l solution of hyaluronic acid of high molecular weight (>1,000,000g/mol or Daltons) is prepared in demineralised water. To this solution is added an amount of Fe2+ of 620 ppm.
Other chelating agents which are conventionally used in cosmetics were used and compared to the chelating microspheres, for their capacity to reduce the radical degradation of hyaluronic acid. Indices of protection, expressed in % of protection, are calculated by carrying out a ratio of the drop in viscosity observed by the presence of iron Fe2+ (620 ppm) in the presence of the chelating agent studied, and the drop in viscosity observed with and without iron Fe2+.

Compound: O/N=C(/C(=N/O)c1ccco1)c1ccco1 [2-furyldioxime]
- Index of protection (%) (concentration used 1.56 g/l): 23.5%
- Index of protection (%) (concentration used 9.37 g/l): 50%

Compound: O=C(O)CN(CCN(CC(=O)O)CC(=O)O)CC(=O)O [EDTA]
- effect on the depolymerisation (radical cleavage) of hyaluronic acid in the presence of iron: accelerated

Compound: NO [Hydroxylamine]
- Index of protection (%) (concentration used 6.25 g/l): 0%

Compound: Transferrin
- Index of protection (%) (concentration used 125 mg/l): 8.7%
- effect on the depolymerisation (radical cleavage) of hyaluronic acid in the presence of iron: accelerated
